Measured values: PMC3038857, “Using Nuclear Receptor Activity to Stratify Hepatocarcinogens” (PLoS ONE, 2011)
Read-outs that look alike come from different tables or passages of the source.

Legend:
[1] = test system: CYP3A4; assay: CLZD_CYP3A4: Change in expression of CYP3A4 (primary human hepatocytes); format: cell-based; conditions: 24 hr
In short: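 Cultured primary human hepatocytes treated with chemicals for 6, 24 or 48 hr across five concentrations spanning 0.004-40 µM, then transcript level measured by quantitative nuclease protection in a multiplexed format.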

[2] = target: T1, ERa (ESR1) (Homo sapiens, UniProt P03372); assay: NCGC_ERalpha_Antagonist: GAL4 BLAM Reporter gene assay: ERa; format: cell-based; conditions: antagonist mode; scale not given, looks like -log10 of molar active concentration; 0 = no activity
T1 construct: expressed in transfected cells; host or cells: HEK293

[3] = target: T2, LXRa (NR1H3) (Homo sapiens, UniProt Q13133); assay: ATG_LXRa_TRANS: Factorial reporter gene assay (HepG2); format: cell-based
T2 construct: expressed in transfected cells; host or cells: HepG2
T2 sequence (Q13133 1-447): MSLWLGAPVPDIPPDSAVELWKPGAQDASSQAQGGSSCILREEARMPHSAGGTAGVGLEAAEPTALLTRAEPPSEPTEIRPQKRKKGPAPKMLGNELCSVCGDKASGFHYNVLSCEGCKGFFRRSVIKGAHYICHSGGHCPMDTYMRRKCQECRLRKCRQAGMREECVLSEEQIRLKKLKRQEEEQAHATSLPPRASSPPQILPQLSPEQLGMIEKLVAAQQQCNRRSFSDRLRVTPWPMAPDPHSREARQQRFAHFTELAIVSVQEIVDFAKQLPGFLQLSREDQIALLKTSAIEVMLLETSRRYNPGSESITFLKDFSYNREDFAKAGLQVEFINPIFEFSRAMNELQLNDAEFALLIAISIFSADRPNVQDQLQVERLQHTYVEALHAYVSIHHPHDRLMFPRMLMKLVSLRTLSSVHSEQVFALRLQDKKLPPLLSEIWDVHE
Method: A multiple reporter transcription unit (MRTU) library consisting of 48 transcription factor binding sites was transfected into the HepG2 human liver hepatoma cell line. In addition to the cis-acting reporter genes (CIS), a modification of the approach was used to generate a trans-system (TRANS) with a mammalian one-hybrid assay consisting of an additional 25 MRTU library reporting the activity of nuclear receptor super-family members. […] These assays were performed by Attagene Inc. (Morrisville NC) under contract to EPA.
In addition to the cis-acting reporter genes (CIS), a modification of the approach was used to generate a trans-system (TRANS) with a mammalian one-hybrid assay consisting of an additional 25 MRTU library reporting the activity of nuclear receptor super-family members. […] Chemicals were then tested in the CIS and TRANS assays at seven concentrations starting at the MTC and followed by three-fold serial dilutions. These assays were performed by Attagene Inc. (Morrisville NC) under contract to EPA. Detailed description of the methods, data and analysis methods for this dataset will be presented in a separate publication.

[4] = test system: Rat Liver; conditions: ref ToxRefDB, cited from earlier work
[5] = target: T3, CAR (NR1I3) (Homo sapiens, UniProt Q14994); assay: ATG_PBREM_CIS: Factorial reporter gene assay (HepG2); format: cell-based; set-up: endogenous in cells; host or cells: HepG2; scale not given here
T3 sequence (Q14994 1-352): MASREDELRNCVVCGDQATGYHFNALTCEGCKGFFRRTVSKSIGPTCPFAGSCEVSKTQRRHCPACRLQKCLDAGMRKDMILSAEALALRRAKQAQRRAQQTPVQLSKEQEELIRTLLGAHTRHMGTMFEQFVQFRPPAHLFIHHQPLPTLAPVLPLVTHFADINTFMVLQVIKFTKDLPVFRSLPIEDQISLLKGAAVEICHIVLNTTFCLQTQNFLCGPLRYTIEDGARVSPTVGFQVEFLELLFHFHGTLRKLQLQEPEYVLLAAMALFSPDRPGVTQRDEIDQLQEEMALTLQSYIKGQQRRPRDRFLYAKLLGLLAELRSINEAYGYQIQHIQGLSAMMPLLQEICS
In short: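 Seven concentrations per chemical, three-fold dilutions down from the MTC, were tested in HepG2 hepatoma cells. Those cells carried a multiple reporter transcription unit library, read either as cis transcription-factor-site reporters or as a trans mammalian one-hybrid panel for nuclear receptors.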

[6] = scale not given, looks like -log10 of molar active concentration, 0 = no activity
[7] = HepG2, scale not given, looks like -log10 of molar active concentration, 0 = no activity
[8] = rat chronic study, liver, any lesion, coded 6 / 0, code not explained here

T1 sequence (P03372 whole entry, the tested form may be a part): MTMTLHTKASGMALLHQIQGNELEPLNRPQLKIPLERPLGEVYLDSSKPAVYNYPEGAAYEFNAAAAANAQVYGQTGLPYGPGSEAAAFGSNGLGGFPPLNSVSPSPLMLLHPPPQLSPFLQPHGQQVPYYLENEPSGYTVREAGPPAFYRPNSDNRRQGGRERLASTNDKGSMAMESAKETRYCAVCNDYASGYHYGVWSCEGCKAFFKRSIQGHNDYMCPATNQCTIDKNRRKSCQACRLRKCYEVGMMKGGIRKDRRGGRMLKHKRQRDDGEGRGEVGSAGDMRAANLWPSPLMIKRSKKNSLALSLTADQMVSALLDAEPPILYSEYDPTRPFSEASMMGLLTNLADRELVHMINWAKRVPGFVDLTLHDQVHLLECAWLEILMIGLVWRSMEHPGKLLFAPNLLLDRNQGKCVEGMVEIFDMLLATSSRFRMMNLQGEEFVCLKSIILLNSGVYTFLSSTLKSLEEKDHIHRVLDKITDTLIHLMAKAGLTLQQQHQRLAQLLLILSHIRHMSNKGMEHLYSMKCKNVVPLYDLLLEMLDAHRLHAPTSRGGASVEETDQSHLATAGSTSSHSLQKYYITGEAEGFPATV

SMILES | CLZD_CYP3A4_24 [1, 6] | NCGC_ERalpha_Antagonist [2] | ATG_LXRa_TRANS [3, 7] | CHR_Rat_Liver_1_AnyLesion [4, 8] | ATG_PBREM_CIS [5, 7] | also measured
Nc1cnn(-c2ccccc2)c(=O)c1Cl [r56] | 0 | 0 | 0 | 0 | 0 | 
CCC(C)n1c(=O)[nH]c(C)c(Br)c1=O (centres unmarked) [r43] | 5.055 | 0 | 0 | 0 | 0 | 
COc1cccc(C(=O)NN(C(=O)c2cc(C)cc(C)c2)C(C)(C)C)c1C [row 202] |  |  |  |  |  | CLZD_CYP3A4_24 [1]: 5.142; CHR_Rat_Liver_1_AnyLesion ([4]; chronic rat study, liver): 6
CC(C)OC(=O)Nc1cccc(Cl)c1 [r59] | 4.864 | 0 | 0 | 6 |  | 
CCN(CC)C(=O)C(C)Oc1cccc2ccccc12 (centres unmarked) [row 219] |  |  |  |  |  | CLZD_CYP3A4_24 [1]: 4.548
N#Cc1cc(Br)c(O)c(Br)c1 [r44] | 0 | 0 | 0 | 6 | 0 | 
CCCCOCN(C(=O)CCl)c1c(CC)cccc1CC [r46] | 0 | 0 | 0 | 6 | 0 | 
CSc1nc(NC(C)C)nc(NC(C)C)n1 [r256] |  |  |  |  |  | CLZD_CYP3A4_24 [1]: 5.143; CHR_Rat_Liver_1_AnyLesion ([4]; rat, chronic study): 0
CCc1cccc(C)c1N(C(=O)CCl)C(C)COC (centres unmarked) [row 208] |  |  |  |  |  | CLZD_CYP3A4_24 [1]: 4.911
Cc1ccccc1CO[C@@H]1C[C@@]2(C(C)C)CC[C@]1(C)O2 [r64] | 5.116 |  | 4.377 | 6 | 0 | 
COc1nc(C)nc(NC(=O)NS(=O)(=O)c2ccccc2Cl)n1 [r62] | 0 | 0 | 0 | 6 | 0 | 
CC(C)(c1ccc(O)cc1)c1ccc(O)cc1 [r40] | 0 | 4.77 | 0 | 0 | 0 | 
CC(C)N1C(=O)c2ccccc2NS1(=O)=O [r37] | 0 | 0 | 4.357 | 0 |  | 
CNC(=O)Oc1cccc2ccccc12 [r52] |  | 0 | 0 | 6 | 0 | 
C#CCC1=C(C)[C@H](OC(=O)[C@H]2[C@H](C=C(C)C)C2(C)C)CC1=O [r249] |  |  |  |  |  | CLZD_CYP3A4_24 [1]: 5.185; CHR_Rat_Liver_1_AnyLesion ([4]; rat, chronic study): 6; ATG_PBREM_CIS ([5]; HepG2): 5.276
OB(O)O [r41] |  | 0 | 0 | 0 | 0 | 
CCOC(=O)C(Cl)Cc1cc(-n2nc(C)n(C(F)F)c2=O)c(F)cc1Cl (centres unmarked) [r54] | 4.919 | 0 | 0 | 6 | 0 | 
CCCC1COC(Cn2cncn2)(c2ccc(Cl)cc2Cl)O1 (centres unmarked) [r262] |  |  |  |  |  | CLZD_CYP3A4_24 [1]: 6.273; CHR_Rat_Liver_1_AnyLesion ([4]; rat, chronic study): 6

SMILES | CLZD_CYP3A4_24 [1, 6] | NCGC_ERalpha_Antagonist [2] | ATG_LXRa_TRANS [3, 7] | CHR_Rat_Liver_1_AnyLesion [4, 8] | ATG_PBREM_CIS [5, 7] | also measured
CCCN(CCC)c1c([N+](=O)[O-])cc(C(F)(F)F)c(N)c1[N+](=O)[O-] [r252] |  |  |  |  |  | CLZD_CYP3A4_24 [1]: 5.248; CHR_Rat_Liver_1_AnyLesion ([4]; rat, chronic study): 6; ATG_PBREM_CIS ([5]; HepG2): 4.337
O=C(Nc1ccccc1-c1ccc(Cl)cc1)c1cccnc1Cl [r42] | 4.98 | 0 | 0 | 6 | 0 | 
C=CCOC(=O)C(C)(C)OC(=O)c1cc(-n2c(=O)cc(C(F)(F)F)n(C)c2=O)ccc1Cl [r47] |  | 0 | 0 | 6 | 0 | 
N#Cc1c(Cl)c(Cl)c(Cl)c(C#N)c1Cl [r58] | 0 | 0 | 0 |  | 0 | 
COC(=O)c1ccccc1CS(=O)(=O)NC(=O)Nc1nc(OC)cc(OC)n1 [r33] | 0 | 0 | 0 |  | 0 | 
CCc1ccc(C(=O)NN(C(=O)c2cc(C)cc(C)c2)C(C)(C)C)cc1 [r290] |  |  |  |  |  | CLZD_CYP3A4_24 [1]: 5.287; CHR_Rat_Liver_1_AnyLesion ([4]; chronic study, rat liver): 6
COc1ccc(-c2ccccc2)cc1NNC(=O)OC(C)C [r38] | 0 | 4.31 | 0 | 0 | 0 | 
CCSC(=O)N(CC(C)C)CC(C)C [r49] | 0 | 0 | 0 | 6 | 0 | 
COc1cc(Cl)c(OC)cc1Cl [r57] | 0 | 0 | 0 |  |  | 
CC(C)N1C(=O)N(c2ccccc2)CS/C1=N\C(C)(C)C [r45] | 4.966 | 0 | 0 | 6 | 0 | 
COc1nc(C)nc(NC(=O)NS(=O)(=O)c2ccccc2Cl)n1 [r63] | 0 | 0 | 0 | 6 | 0 | 
CC1=C(C(=O)Nc2ccccc2)SCCO1 [r53] | 5.078 | 0 | 0 | 0 |  | 
CC(C)Oc1cc(-n2nc(C(C)(C)C)oc2=O)c(Cl)cc1Cl [row 225] |  |  |  |  |  | CLZD_CYP3A4_24 [1]: 6.246; CHR_Rat_Liver_1_AnyLesion ([4]; chronic rat study, liver): 6
CCc1nn(C)c(C(=O)NCc2ccc(C(C)(C)C)cc2)c1Cl [r291] |  |  |  |  |  | CLZD_CYP3A4_24 [1]: 5.218; ATG_LXRa_TRANS ([3]; HepG2 reporter): 6.444; CHR_Rat_Liver_1_AnyLesion ([4]; chronic study, rat liver): 6; ATG_PBREM_CIS ([5]; HepG2 reporter): 5.745
O=C1C2CC=CCC2C(=O)N1SC(Cl)(Cl)Cl (centres unmarked) [r51] | 0 | 0 | 0 |  | 0 | 
Cc1c(COC(=O)C2C(/C=C(\Cl)C(F)(F)F)C2(C)C)cccc1-c1ccccc1 (centres unmarked) [r39] | 4.923 | 0 | 0 | 0 | 0 | 
CCC(C)Nc1c([N+](=O)[O-])cc(C(C)(C)C)cc1[N+](=O)[O-] (centres unmarked) [r48] | 5.288 | 0 | 0 |  |  | 
CC(C)=CC1C(C(=O)OCc2coc(Cc3ccccc3)c2)C1(C)C (centres unmarked) [r280] |  |  |  |  |  | CHR_Rat_Liver_1_AnyLesion ([4]; chronic study, rat liver): 6
